Test results reported in patent US5446029A, “Anti-retroviral activity of 2',3'-dideoxy-3'-fluoronucleosides” (Medivir AB, priority 1986, dated 1995).
Read-outs that look alike come from different tables or passages of the source.

What was measured:
[1] = target: T1, reverse transcriptase of HIV (HTLV-III/LAV) (Human immunodeficiency virus type 1 group M subtype B, UniProt P04585); assay: Inhibition of HIV (HTLV-III/LAV) reverse transcriptase, cell free assay (Test II); assay type: biochemical
T1 construct: reverse transcriptase of HIV (HTLV-III/LAV) in cell free assay
Procedure: The assay was performed as described by Vrang et Oberg, Antimicrob. Agents Chemother. 29,867-872 (1986).

DNA synthesis = details: Journal f. prakt. Chemie, Vol. 315, 895-900 (1973); cited from earlier work
[2] = target: DNA polymerase of hepatitis B virus (HBV) (Hepatitis B virus genotype D subtype ayw, UniProt P03156); assay: Inhibition of hepatitis B virus (HBV) DNA polymerase, cell free assay (Test I); assay type: biochemical
DNA polymerase of hepatitis B virus (HBV), sequence (P03156 whole entry): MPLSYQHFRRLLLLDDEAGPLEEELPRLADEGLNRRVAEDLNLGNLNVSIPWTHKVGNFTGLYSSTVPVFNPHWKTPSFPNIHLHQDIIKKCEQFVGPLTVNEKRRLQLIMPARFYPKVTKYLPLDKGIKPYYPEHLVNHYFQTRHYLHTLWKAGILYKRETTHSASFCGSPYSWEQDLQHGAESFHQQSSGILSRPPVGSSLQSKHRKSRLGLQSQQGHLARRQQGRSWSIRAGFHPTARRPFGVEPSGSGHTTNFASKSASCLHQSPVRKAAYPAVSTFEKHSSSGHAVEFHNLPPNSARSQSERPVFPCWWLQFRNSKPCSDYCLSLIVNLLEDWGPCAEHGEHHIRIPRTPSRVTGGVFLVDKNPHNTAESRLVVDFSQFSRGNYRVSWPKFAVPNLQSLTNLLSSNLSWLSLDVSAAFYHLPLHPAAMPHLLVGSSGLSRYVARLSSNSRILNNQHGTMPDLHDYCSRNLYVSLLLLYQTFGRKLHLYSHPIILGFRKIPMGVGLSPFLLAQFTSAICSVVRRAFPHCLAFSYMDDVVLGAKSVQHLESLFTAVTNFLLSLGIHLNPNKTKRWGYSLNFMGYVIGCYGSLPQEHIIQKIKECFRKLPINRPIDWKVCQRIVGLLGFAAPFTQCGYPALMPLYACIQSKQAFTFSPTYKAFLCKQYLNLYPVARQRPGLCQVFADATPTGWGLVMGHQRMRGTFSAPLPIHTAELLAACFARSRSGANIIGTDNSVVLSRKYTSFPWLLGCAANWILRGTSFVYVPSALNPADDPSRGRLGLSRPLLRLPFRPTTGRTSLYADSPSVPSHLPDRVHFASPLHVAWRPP
Description: The HBV associated DNA polymerase activity can be measured in vitro (Kaplan et al., J. Virol., 12,995-1005, 1973). A slight modification of this method has been used to test the substance for inhibition of this DNA polymerase activity. (Nordenfelt E., (Oberg, B., Helgstrand E. and Miller E. Acta path., Microbiol. Scand. Sect B, 88:169-175, 1980). With this assay the 3'-deoxy-3'-fluorothymidine-5'-triphosphate has been tested, instead of the prodrug 3'-deoxy- 3'-fluorothymidine, to evaluate its potential against hepatitis B virus DNA polymerase.
3'-deoxy-3'-fluorothymidine-5'-triphosphate was added to the final concentrations of 0.01 μM, 0.05 μM, 0.1 μM, 0.5 μM and 1.0 μM in the reaction mixture. The inhibition is calculated after 3 hours incubation at 37° C. and based on cpm compared to control with added water.

[3] = system: HIV (HTLV-III/LAV) in H9 cells
Procedure: MATERIAL AND METHODS; HIV INFECTION OF H9 CELLS
The cells were then pelleted and dispersed in 2.5 ml phosphate buffered saline (PBS) including 2 μg/ml Polybrene. After incubation for 30 min the cells were pelleted and infected with HIV. After an adsorption period of 1 hour the cells were pelleted and washed once with 2.5 ml PBS. […] Samples for reverse transcriptase activity tests were taken as indicated.
1.3 ml samples from the supernatant of each culture were centrifuged at 18 000 rpm in a 55-34 rotor for 1.5 hours and the virus pellet resuspended in 100 μl buffer containing 50 mM Tris-HC1, pH 7.5; 35 mM KC1; 4 mM DTT; 1 mM EDTA; 1.3 % Triton X-100.50 μl samples were taken to the reverse transcriptase activity tests and analyzed in a 100 μl reaction mixture containing 75 mM Tris-HC1, pH 8.0; 60 mM KC1; 6.2 mM MgC12 ; 6 mM DTT; 0.5 mM EDTA; 0.65 % Triton X-100; 100 μg/ml BSA; 25 μCi/ml ^3 H-dTTP (spec activity 80 Ci/mmol); 2.5 μg/ml (dT)12-18 ; and 2.0 μg/ml (rA)n. Incubation was for 1 hour at 37° C. and the TCA-insoluble product precipitated onto Whatman GF/A filter papers, washed and dried, and counted in a liquid scintillation counter.

In the case of Cc1cn([C@H]2C[C@H](F)[C@@H](CO)O2)c(=O)[nH]c1=O, the “ID50-value with regard to the activity of HIV reverse transcriptase” value ([1]; by extrapolation from Table II, tested as 5'-triphosphate) is listed as 200 nM, the “cytostatic and virustatic activity” value (DNA synthesis) is listed as “cytostatic and virustatic activity as selective inhibitor of DNA synthesis” and the “apparent ID50-value” ([2]; from Table I, tested as 5'-triphosphate, 3 hours at 37° C.) is listed as 160 nM. The Reverse transcriptase activity ([3]; 0.01 μM, day 4 post-infection, untreated 0.9) was 0.5 cpm × 10^-3, the Reverse transcriptase activity ([3]; 0.01 μM, day 8 post-infection, untreated 19) was 1.3 cpm × 10^-3 and the Reverse transcriptase activity ([3]; 0.01 μM, day 11 post-infection, untreated 17) was 1.9 cpm × 10^-3. It also gave a Reverse transcriptase activity ([3]; 0.01 μM, day 15 post-infection, untreated 11) of 2.7 cpm × 10^-3, a Reverse transcriptase activity ([3]; 0.01 μM, day 18 post-infection, untreated 27) of 28 cpm × 10^-3 and a Reverse transcriptase activity ([3]; 0.01 μM, day 22 post-infection, untreated 46) of 52 cpm × 10^-3. For the same compound, the Reverse transcriptase activity ([3]; 0.01 μM, day 29 post-infection, untreated 16) was 21 cpm × 10^-3, the “effect on reverse transcriptase activity of HIV (in words)” value (from here on “effect on reverse transcriptase activity”) ([3]; 0.01 μM, up to 11 days) was “enzyme activity was not detected” and the Reverse transcriptase activity ([3]; 0.05 μM, day 4 post-infection, untreated 0.9) was 0.3 cpm × 10^-3. It also gave a Reverse transcriptase activity ([3]; 0.05 μM, day 8 post-infection, untreated 19) of 0.3 cpm × 10^-3, a Reverse transcriptase activity ([3]; 0.05 μM, day 11 post-infection, untreated 17) of 0.4 cpm × 10^-3 and a Reverse transcriptase activity ([3]; 0.05 μM, day 15 post-infection, untreated 11) of 0.6 cpm × 10^-3. The Reverse transcriptase activity ([3]; 0.05 μM, day 18 post-infection, untreated 27) was 0.5 cpm × 10^-3, the Reverse transcriptase activity ([3]; 0.05 μM, day 22 post-infection, untreated 46) was 1.6 cpm × 10^-3 and the Reverse transcriptase activity ([3]; 0.05 μM, day 29 post-infection, untreated 16) was 3.1 cpm × 10^-3. The “effect on reverse transcriptase activity” value ([3]; 0.05 μM, up to 22 days) was “no significant enzyme activity was detected”, the “effect on reverse transcriptase activity” value ([3]; 0.1 μM and higher concentrations, during at least 29 days) was “completely prevents the enzyme activity” and the Reverse transcriptase activity ([3]; 0.1 μM, day 4 post-infection, untreated 0.9) was 0.2 cpm × 10^-3. For the same compound, the Reverse transcriptase activity ([3]; 0.1 μM, day 8 post-infection, untreated 19) was 0.2 cpm × 10^-3, the Reverse transcriptase activity ([3]; 0.1 μM, day 11 post-infection, untreated 17) was 0.5 cpm × 10^-3 and the Reverse transcriptase activity ([3]; 0.1 μM, day 15 post-infection, untreated 11) was 0.4 cpm × 10^-3. It also gave a Reverse transcriptase activity ([3]; 0.1 μM, day 18 post-infection, untreated 27) of 0.4 cpm × 10^-3, a Reverse transcriptase activity ([3]; 0.1 μM, day 22 post-infection, untreated 46) of 0.2 cpm × 10^-3 and a Reverse transcriptase activity ([3]; 0.1 μM, day 29 post-infection, untreated 16) of 0.2 cpm × 10^-3. For the same compound, the Reverse transcriptase activity ([3]; 0.5 μM, day 4 post-infection, untreated 0.9) was 0.3 cpm × 10^-3, the Reverse transcriptase activity ([3]; 0.5 μM, day 8 post-infection, untreated 19) was 0.3 cpm × 10^-3 and the Reverse transcriptase activity ([3]; 0.5 μM, day 11 post-infection, untreated 17) was 0.5 cpm × 10^-3. It also gave a Reverse transcriptase activity ([3]; 0.5 μM, day 15 post-infection, untreated 11) of 0.3 cpm × 10^-3, a Reverse transcriptase activity ([3]; 0.5 μM, day 18 post-infection, untreated 27) of 0.6 cpm × 10^-3 and a Reverse transcriptase activity ([3]; 0.5 μM, day 22 post-infection, untreated 46) of 0.1 cpm × 10^-3. It also gave a Reverse transcriptase activity ([3]; 0.5 μM, day 29 post-infection, untreated 16) of 0.2 cpm × 10^-3, a Reverse transcriptase activity ([3]; 1.0 μM, day 4 post-infection, untreated 0.9) of 0.3 cpm × 10^-3 and a Reverse transcriptase activity ([3]; 1.0 μM, day 8 post-infection, untreated 19) of 0.2 cpm × 10^-3. The Reverse transcriptase activity ([3]; 1.0 μM, day 11 post-infection, untreated 17) was 0.5 cpm × 10^-3, the Reverse transcriptase activity ([3]; 1.0 μM, day 15 post-infection, untreated 11) was 0.4 cpm × 10^-3 and the Reverse transcriptase activity ([3]; 1.0 μM, day 18 post-infection, untreated 27) was 0.5 cpm × 10^-3. For the same compound, the Reverse transcriptase activity ([3]; 1.0 μM, day 22 post-infection, untreated 46) was 0.1 cpm × 10^-3 and the Reverse transcriptase activity ([3]; 1.0 μM, day 29 post-infection, untreated 16) was 0.2 cpm × 10^-3.
Work on Cc1cn([C@H]2C[C@H](F)[C@@H](COP(=O)(O)OP(=O)(O)OP(=O)(O)O)O2)c(=O)[nH]c1=O [3'-deoxy-3'-fluorothymidine-5'-triphosphate] yielded an inhibition at 0.01 µM ([1]; 0.01 μM) of 12%, an inhibition at 0.05 µM ([1]; 0.05 μM) of 27% and an inhibition at 0.1 µM ([1]; 0.1 μM) of 38%. It also gave an inhibition at 1 µM ([2]; read-out: % inhibition of HBV DNA polymerase activity) of 88%.
